Measured values reported in article PMC5589090 (PLoS Medicine, 2017).
“And” between values parts separate entries of the source, which are not always exact repeats. Identical values can stand only once. “Also recorded” adds a separate entry of the source. Like-named read-outs stand apart in the source and are kept apart here.

Experiments:
[1] = test system: HbF; details: same non-human primates (n = 14); cited from earlier work
[2] = 4 SCD subjects, subcutaneous or oral, 30-500 days; cited from earlier work
[3] = THU solubility and storage stability; format: physicochemical; details: stored at -20°C; 1 year study and about 4 years re test
Description: Prior to administration, a glass bottle containing THU will be brought to room temperature, and dissolved in 2 ml water with a further dilution to a final volume of 10 ml, to create a solution with a final concentration that is determined by the amount of drug in the glass vial (THU is soluble to at least 100 mg/ml in water). Using this final concentration, a volume of solution containing the appropriate dose will be removed, diluted further with water to a total volume of 30ml and given by mouth. The time between reconstitution of drug and oral administration should not exceed 60 minutes, and remaining solution is to be discarded.

[4] = cited from earlier work
[5] = set-up: method as in ref 40,59-61,63-69 (main text); 25;37-45 (protocol); details: 25;37-45 (protocol); cited from earlier work
[6] = in vivo; cited from earlier work
[7] = test system: nucleotide pool sizes; details: cited from earlier work
[8] = cited from earlier work; remark: listed apart in the source
[9] = set-up: method as in ref 26 (a number printed in a supplementary file, which may have a reference list of its own: not looked up in the article's list); details: cited from earlier work
[10] = cited from earlier work; remark: listed apart in the source
[11] = test system: mammary tumors; details: intraperitoneal 125-250 mg/kg thrice weekly for 6 months, rats surviving to 18 months; cited from earlier work
[12] = test system: HbF; details: cited from earlier work

SMILES: Nc1ncn([C@@H]2O[C@H](CO)[C@@H](O)[C@H]2O)c(=O)n1 [5-azacytidine]
- greater increases in HbF than cytarabine or hydroxyurea [1]: 2 to 20 fold
- marrow toxicity [2]: No marrow toxicity was observed

SMILES: O=C1NC(O)CCN1[C@@H]1O[C@H](CO)[C@@H](O)[C@H]1O (stereo partly drawn) [THU, tetrahydrouridine]
- stability of bulk drug [3]: demonstrate THU stability
- solubility in water [4]: at least 100 mg/ml
- toxicity / side effects in animals and humans [5]: No toxicities have been found; also recorded: have not identified any toxic side-effects; also recorded: no toxic side-effects have been identified; also recorded: benign toxicity profile; also recorded: no side effects observed; also recorded: has not caused toxicity
- share of elimination by renal excretion [6]: ~ 50%
- effect on nucleotide pool sizes [7]: no effect

SMILES: Nc1ccn([C@@H]2O[C@H](CO)[C@@H](O)[C@@H]2O)c(=O)n1 [cytarabine]
- greater exposure in mice versus monkey dose for dose [8]: more than 100 fold

SMILES: Nc1ccn([C@@H]2O[C@H](CO)[C@@H](O)C2(F)F)c(=O)n1 [gemcitabine]
- oral bioavailability ([9]; with THU co-administration): ~ 40%
- oral bioavailability ([9]; without THU): ~ 10%

SMILES: NC(=O)NO [hydroxyurea]
- genotoxicity ([10]; package insert): genotoxic in a wide range of test systems
- neutrophil recovery time ([10]; pancellular hematologic toxicities, ref AHFS Drug Information, 2000): up to 2 weeks
- incidence of mammary tumors [11]: increased the incidence of mammary tumors
- mean change in HbF after 2 years of treatment ([12]; SCD patients with no HbF response in the pivotal trial): ~0% and 0.3%
- adult SCD patients in whom HbF increased for 2 years ([12]; hydroxyurea 15–35 mg/kg, pivotal trial): approximately 50%
- subjects who did not respond (no elevated HbF after two years) ([12]; pivotal multi-center trial): approximately 50%
- Average HbF increases at 2 years ([12]; pivotal trial): 3.6%
- average total hemoglobin increase ([12]; pivotal trial): 0.6 g/dL
